Laboratory results taken from patent publication US11766468B2, “Method of treating prostate cancer with GnRH antagonist” (priority 2012, dated 2023).
Where “and” joins values, the source holds several entries; their conditions need not be identical. Equal entries are not always repeated. Marks after values point to notes of the source that are not given here. Square brackets hold non-standard residues; d marks the D form. Peptide text beside a SMILES is read from it. * marks the point of attachment. dPhe(4-NHCONH2) = NC(=O)Nc1ccc(C[C@@H](N)C(=O)O)cc1; Dihydroorotyl(S) = O=C1C[C@@H](C(=O)*)NC(=O)N1; dPhe(4-Cl) = N[C@H](Cc1ccc(Cl)cc1)C(=O)O; Phe(4-NH2) = Nc1ccc(C[C@H](N)C(=O)O)cc1; d2Nal = N[C@H](Cc1ccc2ccccc2c1)C(=O)O; Lys(iPr) = CC(C)NCCCC[C@H](N)C(=O)O; d3Pal = N[C@H](Cc1cccnc1)C(=O)O

Assay: CS21 safety: treatment-emergent adverse events (MedDRA SOC/PT), crude incidence, also by subgroup
Format: in vivo
Procedure: The safety variables for this study were assessed on the following: the frequency and severity of adverse events (AEs); the presence of clinically significant changes in laboratory parameters (clinical chemistry, hematology and urinalysis); changes in electrocardiograms (ECGs) and vital signs; changes detected by physical examination; and body weight.
An AE was therefore any unfavorable or unintended sign (including an abnormal laboratory finding), symptom or disease temporally associated with the use of the product, whether or not related to the IMP.
An adverse drug reaction (ADR) was defined as an AE evaluated by the investigator as being probably or possibly related to treatment with the IMP.
AEs were graded according to the National Cancer Institute (NCI) Common Terminology Criteria for Adverse Events (CTCAE). In accordance with the CTCAE criteria, AEs were rated on a five-point scale corresponding to mild, moderate, severe, life-threatening or disabling and death. For those AEs not described in the CTCAE, a separate five-point rating scale was used for rating of the intensity of AEs as follows below:
Safety parameters were evaluated for all patients included in the ITT analysis set, comprising all 610 randomized patients who received at least one dose of study medication. All safety tables include four columns: the three treatment groups described separately, and the pooled degarelix group.
Adverse events were regarded as ‘treatment-emergent’ if they occurred in the time interval from initial dosing to end-of-study. Adverse events were considered ‘pre-treatment’ if they occurred between screening and the initial injections of IMP. As described above, all AEs were classified according to MedDRA (version 10.0) system organ class (SOC), sorted alphabetically, and by preferred term (PT), in decreasing frequency of occurrence. Treatment-emergent AEs were expressed in terms of intensity (using NCI CTCAE) and relationship to study drug.
Using the results from the summary of clinical efficacy (SCE) and summary of clinical safety (SCS) findings, different patient subgroups were analyzed. Subgroup distinguishers included race (white, black, and other), age (<65 years, […], and >75 years), weight (<70 kg, ≥70−<90 kg, and ≥90 kg), body mass index (BMI) (≤20, >20 to 30, and >30 kg/m^2)), region (North-America, Western Europe, Central and Eastern Europe and Other), and stage of prostate cancer (e.g., localized, locally advanced, and metastatic).

[1] = degarelix Total (pooled), leuprolide 7.5 mg
[2] = degarelix Total (pooled), leuprolide 7.5 mg, listed as degarelix
[3] = degarelix pooled, LUPRON DEPOT 7.5 mg
[4] = degarelix pooled, LUPRON DEPOT 7.5 mg, listed as degarelix
[5] = pooled degarelix, leuprolide 7.5 mg

SMILES: CC(=O)N[C@H](Cc1ccc2ccccc2c1)C(=O)N[C@H](Cc1ccc(Cl)cc1)C(=O)N[C@H](Cc1cccnc1)C(=O)N[C@@H](CO)C(=O)N[C@@H](Cc1ccc(NC(=O)[C@@H]2CC(=O)NC(=O)N2)cc1)C(=O)N[C@H](Cc1ccc(NC(N)=O)cc1)C(=O)N[C@@H](CC(C)C)C(=O)N[C@@H](CCCCNC(C)C)C(=O)N1CCC[C@H]1C(=O)N[C@H](C)C(N)=O [Degarelix, D-Alaninamide, N-acetyl-3-(2-naphthalenyl)-D-alanyl-4-chloro-D-phenylalanyl-3-(3-pyridinyl)-D-alanyl-L-seryl-4-[[[(4S)-hexahydro-2,6-dioxo-4-pyrimidinyl]carbonyl]amino]-L phenylalanyl-4-[(aminocarbonyl)amino]-D-phenylalanyl-L leucyl-N6-(1-methylethyl)-L-lysyl-L-prolyl] (Ac-[d2Nal][dPhe(4-Cl)][d3Pal]S[Phe(4-NH2)](Dihydroorotyl(S))[dPhe(4-NHCONH2)]L[Lys(iPr)]P[dA]-NH2)
- Ear & labyrinth disorders, % of patients [1]: ( 2%)
- Endocrine disorders, % of patients [1]: ( 1%)
- Eye disorders, % of patients [1]: ( 2%)
- Fatigue, % of patients [1]: ( 5%)
- Gastrointestinal disorders, % of patients [1]: (17%)
- General disorders & administration site conditions, % of patients [1]: (47%)
- Hepatobiliary disorders, % of patients [1]: (<1%)
- Hot flush, % of patients [1]: (26%)
- Hypercholesterolaemia, % of patients [1]: ( 5%)
- Hypertension, % of patients [1]: ( 6%)
- Immune system disorders, % of patients [1]: (<1%)
- Infections & infestations, % of patients [1]: (20%)
- Injection site pain, % of patients [1]: (29%)
- Injury, poisoning & procedural complications, % of patients [1]: ( 5%)
- Metabolism & nutrition disorders, % of patients [1]: (10%)
- Nausea, % of patients [1]: ( 5%)
- Neoplasms benign, malignant & unspecified, % of patients [1]: ( 5%)
- Nervous system disorders, % of patients [1]: (12%)
- Psychiatric disorders, % of patients [1]: ( 8%)
- Renal & urinary disorders, % of patients [1]: (13%)
- Respiratory, thoracic & mediastinal disorders, % of patients [1]: (10%)
- Serious AEs, % of patients [1]: 11%
- Serious AEs, E events [1]: 67
- Serious AEs, N patients [1]: 45
- Skin & subcutaneous tissue disorders, % of patients [1]: (10%)
- Vascular disorders, % of patients [1]: (33%)
- Weight increased, % of patients [1]: (10%)
- Arthralgia, % of patients [2]: 4% and 4.2%
- Back pain, % of patients [2]: 6%
- Cardiac disorders, % of patients [2]: 9%
- Gastrointestinal disorders, % of patients [2]: 17%
- General disorders & administration site conditions, % of patients [2]: 47%
- Infections & infestations, % of patients [2]: 20%
- Injection site pain, % of patients [2]: 29%
- Investigations, % of patients [2]: 27%
- Musculoskeletal & connective tissue disorders, % of patients [2]: 17%
- Renal & urinary disorders, % of patients [2]: 13%
- Reproductive system & breast disorders, % of patients [2]: 5%
- Treatment-emergent adverse events (all AEs), % of patients [2]: 81%
- Urinary tract infection, % of patients [2]: 3%
- Vascular disorders, % of patients [2]: 33%
- Myocardial Infarction (PT), % of patients (degarelix combined, LUPRON DEPOT 7.5 mg): 0.5%
- Deep vein thrombosis, N patients (degarelix pooled): 0
- Libido decreased, N patients (degarelix pooled): 0
- Cardiac murmur, % of patients [3]: 0%
- Chest pain, % of patients [3]: (<1%)*
- Cystitis noninfective, % of patients [3]: 0%
- Deep vein thrombosis, % of patients [3]: 0%
- Erectile dysfunction, % of patients [3]: (1%)*
- Libido decreased, % of patients [3]: 0%
- Musculoskeletal stiffness, % of patients [3]: 0%
- Myocardial ischaemia, % of patients [3]: (<1%)*
- Oedema peripheral, % of patients [3]: (2%)*
- Urinary retention, % of patients [3]: (1%)*
- Chest pain, % of patients [4]: 0.5%
- Erectile dysfunction, % of patients [4]: 1% and 1.5%
- Oedema peripheral, % of patients [4]: 2%
- Urinary retention, % of patients [4]: 1.2%
- discontinuations due to injection site adverse events (degarelix s.c., 12 months): < 1%
- immediate onset hypersensitivity reactions (in vivo): no immediate onset hypersensitivity reactions
- ADRs: general disorders and administration site conditions including injection-site reactions, % of patients (pooled degarelix): 42%
- Gynaecomastia, prostatitis or testicular atrophy (each), % of patients (pooled degarelix): 2%
- Hyperhidrosis, % of patients (pooled degarelix): < 1%
- Night sweats, % of patients (pooled degarelix): 1%
- Pelvic pain, % of patients (pooled degarelix): < 1%
- Sweating disorders, % of patients (pooled degarelix): approximately 1%
- Testicular pain, % of patients (pooled degarelix): < 1%
- incidence of all other injection site preferred terms (pooled degarelix): ≤ 0.5 per 100 injections
- incidence of injection site erythema (pooled degarelix): 1.9 per 100 injections
- incidence of injection site pain (pooled degarelix): 2.9 per 100 injections
- incidence of treatment-emergent injection site reactions (pooled degarelix): 4.4 per 100 injections
- injection site reactions which led to withdrawal, % of patients (pooled degarelix): 1.2%
- patients with SAEs that led to withdrawal, number (pooled degarelix): 17
- Hot flushes reported as ADR, % of patients [5]: 25%
- SAEs: cardiac disorders, % of patients [5]: 2%
- SAEs: renal and urinary disorders, % of patients [5]: 2%
